Source: publication PMC8802628, “Selective activation of PFKL suppresses the phagocytic oxidative burst” (Cell, 2021)

What was measured:
[1] = target: T1, PFKL (Homo sapiens, UniProt P17858); experiment: Thermal inactivation assay of PFKL; type: biochemical; details: 35°C; 200 μM FBP, 200 nM NA-11
T1 construct: made in house; host or cells: Sf9 insect cells (baculovirus, Bac-to-Bac)
T1 sequence (P17858 1-780): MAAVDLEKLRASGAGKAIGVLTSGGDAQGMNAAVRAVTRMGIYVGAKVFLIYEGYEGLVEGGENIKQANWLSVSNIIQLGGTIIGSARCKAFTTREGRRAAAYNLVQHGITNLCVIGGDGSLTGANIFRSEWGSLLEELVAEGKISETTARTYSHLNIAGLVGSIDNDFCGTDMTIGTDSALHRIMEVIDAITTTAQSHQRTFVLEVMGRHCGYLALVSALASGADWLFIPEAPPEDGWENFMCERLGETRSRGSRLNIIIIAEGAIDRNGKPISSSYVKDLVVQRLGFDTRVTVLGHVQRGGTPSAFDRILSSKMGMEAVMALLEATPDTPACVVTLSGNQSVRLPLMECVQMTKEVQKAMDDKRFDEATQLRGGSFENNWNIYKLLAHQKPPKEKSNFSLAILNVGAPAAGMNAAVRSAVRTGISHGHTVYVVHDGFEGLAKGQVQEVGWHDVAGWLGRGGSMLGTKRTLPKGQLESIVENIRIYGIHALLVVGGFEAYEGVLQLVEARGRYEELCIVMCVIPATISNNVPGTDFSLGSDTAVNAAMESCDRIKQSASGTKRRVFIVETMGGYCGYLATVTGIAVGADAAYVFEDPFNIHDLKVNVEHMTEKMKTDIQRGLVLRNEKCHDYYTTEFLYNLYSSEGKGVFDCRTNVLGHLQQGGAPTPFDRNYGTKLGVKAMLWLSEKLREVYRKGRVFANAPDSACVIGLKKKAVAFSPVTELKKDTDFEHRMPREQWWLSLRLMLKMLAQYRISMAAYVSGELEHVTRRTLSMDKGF
Procedure: Thermal inactivation assays were performed as previously described for PFKP, with modifications to account for the decreased stability of PFKL ([Sánchez-Martínez et al., 2000]). PFKL was diluted to 10 ng/mL, with a final buffer composition of 53.3 mM HEPES, 100 mM KCl, 0.167 mM DTT, 83.3 μM ammonium sulfate, 0.83% glycerol, 0.170 mM ATP, and 16.7 mM EDTA. Samples were incubated at 35°C. At the times indicated, samples were removed and residual PFK1 activity measured using the PK/LDH auxiliary enzyme assay described above with 125 μM ATP and 5 mM F6P. To determine if small molecule ligands altered PFKL stability, 200 μM FBP and 200 nM NA-11 were added.

[2] = tested on: primary human monocytes and human monocytic THP-1 cells; experiment: GSDMD-dependent pyroptosis, LDH release; type: cell-based; details: induced by nigericin, cytoplasmic LPS, or cytoplasmic poly(dA-dT)
Procedure: Primary human monocytes were primed with 1 μg/mL ultrapure LPS and 1μg/mL Pam3CSK4 for 3 h. THP-1 cells were primed with 1 μg/mL Pam3CSK4 for 4 h. Primed cells (1 × 10^5) were treated for 1 h with DMSO vehicle, 5 μM LDC7559 (unless indicated otherwise), 10 μM MCC950, or 50 μM VX765, and then for 1 h with 10 μg/mL nigericin, or 25 μg/mL LPS (electroporated using the NEON electroporation system; ThermoFisher Scientific), or they were transfected over 3 h with 1 μg/mL poly(dA-dT) using lipofectamine 2000 (0.5 μL/well).
LDH released into the culture medium was measured 1-3 h post-activation using a CellTox Green Cytotoxicity assay (Promega). IL-1β secretion was measured using a MSD Cytokine Assay, 96-well multi-array Tissue Culture Kit (Meso Scale Discovery). For immunoblotting, monocytes (2 × 10^6) were treated with 10-50 μM LCD7559 or 50 μM VX765 and electroporated with 25 μg/mL LPS using the NEON electroporation system. Cells were lysed after 1 h using lysis buffer (50 mM Tris pH 7.4, 150 mM NaCl, 10% glycerol, 1% NP-40, 1 mM MgCl and 1X Roche cOmplete protease inhibitor cocktail) and protein concentration was determined via BCA protein assay (Peirce). Antibodies for immunoblotting were GSDMD (L60, Cell Signaling Technologies), cleaved GSDMD-Asp275 (E7H9G, Cell Signaling Technologies) and GAPDH (14C10, Cell Signaling Technologies).

| SMILES | protection of PFKL from thermal inactivation [1] | GSDMD-dependent pyroptosis (LDH release) [2] |
| --- | --- | --- |
| CC(=O)Nc1ccc2c(c1)OCc1cc(-c3ccccc3C#CCCCO)nn1C2 [NA-11] | did not | – |
| COc1ccccc1-c1cc2n(n1)Cc1ccc(NC(C)=O)cc1OC2 [LDC7559, reference compound] | – | did not alter GSDMD-dependent pyroptosis |
